“And” between values parts separate entries of the source, which are not always exact repeats. Equal entries are not always repeated.
System: Swiss mice, Sarcoma 180 sc, mean tumor weight T/C
Test: NCI In Vivo Anticancer Drug Screen. Data for tumor model Sarcoma 180 (subcutaneous) in Swiss mice
Details: endpoint: mean tumor weight, higher = larger tumour
How it was run: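 T/C ratio: treated over vehicle-treated controls, measuring survival or tumor size in transplanted-tumor mice.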

[1] = dose: 62.5 mg/kg/injection, schedule: Q#A X014 (ip), vehicle: carboxymethylcellulose (CMC)
[2] = dose: 222.0 mg/kg/injection, schedule: Q01DX007 (ip), vehicle: other
[3] = dose: 333.0 mg/kg/injection, schedule: Q01DX007 (ip), vehicle: other

CN(C)c1nc(N(C)C)nc(N(C)C)n1
T/C (dose: 7.34 mg/kg/injection, schedule: Q#A X014 (ip), vehicle: carboxymethylcellulose (CMC)): 86 % of control | T/C (dose: 14.67 mg/kg/injection, schedule: Q#A X014 (ip), vehicle: carboxymethylcellulose (CMC)): 90 % of control | T/C (dose: 22.5 mg/kg/injection, schedule: Q01DX007 (ip), vehicle: carboxymethylcellulose (CMC)): 117 % of control | T/C (dose: 23.45 mg/kg/injection, schedule: Q#A X014 (ip), vehicle: other): 91 % of control | T/C (dose: 25.0 mg/kg/injection, schedule: Q01DX007 (ip), vehicle: methylcellulose (MC)): 64 % of control | T/C (dose: 25.0 mg/kg/injection, schedule: Q01DX007 (oral), vehicle: carboxymethylcellulose (CMC)): 58 % of control | T/C (dose: 25.0 mg/kg/injection, schedule: Q01DX007 (oral), vehicle: methylcellulose (MC)): 102 % of control | T/C (dose: 29.35 mg/kg/injection, schedule: Q#A X014 (ip), vehicle: carboxymethylcellulose (CMC)): 75 % of control | T/C (dose: 29.35 mg/kg/injection, schedule: Q#A X014 (ip), vehicle: other): 80 % of control | T/C (dose: 31.25 mg/kg/injection, schedule: Q#A X014 (ip), vehicle: carboxymethylcellulose (CMC)): 53 % of control | T/C (dose: 39.1 mg/kg/injection, schedule: Q#A X014 (ip), vehicle: other): 83 % of control | T/C (dose: 45.0 mg/kg/injection, schedule: Q01DX007 (ip), vehicle: carboxymethylcellulose (CMC)): 88 % of control | T/C (dose: 46.9 mg/kg/injection, schedule: Q01DX007 (ip), vehicle: other): 49 % of control | T/C (dose: 50.0 mg/kg/injection, schedule: Q01DX007 (ip), vehicle: methylcellulose (MC)): 61 % of control | T/C (dose: 50.0 mg/kg/injection, schedule: Q01DX007 (oral), vehicle: carboxymethylcellulose (CMC)): 87 % of control | T/C (dose: 50.0 mg/kg/injection, schedule: Q01DX007 (oral), vehicle: methylcellulose (MC)): 116 % of control | T/C (dose: 58.7 mg/kg/injection, schedule: Q01DX007 (ip), vehicle: other): 51 % of control | T/C (dose: 58.7 mg/kg/injection, schedule: Q#A X014 (ip), vehicle: other): 77 % of control | T/C [1]: 26 % of control | T/C (dose: 78.2 mg/kg/injection, schedule: Q01DX007 (ip), vehicle: other): 54 % of control | T/C (dose: 90.0 mg/kg/injection, schedule: Q01DX007 (ip), vehicle: carboxymethylcellulose (CMC)): 77 % of control | T/C (dose: 100.0 mg/kg/injection, schedule: Q01DX007 (ip), vehicle: methylcellulose (MC)): 75 % of control | T/C (dose: 100.0 mg/kg/injection, schedule: Q01DX007 (oral), vehicle: carboxymethylcellulose (CMC)): 67 % of control | T/C (dose: 100.0 mg/kg/injection, schedule: Q01DX007 (oral), vehicle: methylcellulose (MC)): 108 % of control | T/C (dose: 117.4 mg/kg/injection, schedule: Q01DX007 (ip), vehicle: other): 40 % of control | T/C (dose: 200.0 mg/kg/injection, schedule: Q01DX007 (ip), vehicle: methylcellulose (MC)): 94 % of control | T/C (dose: 200.0 mg/kg/injection, schedule: Q01DX007 (oral), vehicle: carboxymethylcellulose (CMC)): 57 % of control | T/C (dose: 200.0 mg/kg/injection, schedule: Q01DX007 (oral), vehicle: methylcellulose (MC)): 114 % of control

CCCCCCCCCCCCCCCC[N+]1(C)CCN(SN2CC[N+](C)(CCCCCCCCCCCCCCCC)CC2)CC1
T/C (dose: 21.0 mg/kg/injection, schedule: Q#A X014 (ip), vehicle: saline): 55 % of control and 77 % of control | T/C (dose: 31.5 mg/kg/injection, schedule: Q#A X014 (ip), vehicle: saline): 53 % of control and 76 % of control | T/C (dose: 47.5 mg/kg/injection, schedule: Q#A X014 (ip), vehicle: saline): 65 % of control | T/C (dose: 71.5 mg/kg/injection, schedule: Q#A X014 (ip), vehicle: saline): 37 % of control

Nc1c(Br)cc2c(c1Br)Cc1cc([N+](=O)[O-])ccc1-2
T/C (dose: 74.0 mg/kg/injection, schedule: Q01DX007 (ip), vehicle: other): 77 % of control | T/C (dose: 111.0 mg/kg/injection, schedule: Q#A X014 (ip), vehicle: saline): 27 % of control | T/C (dose: 148.0 mg/kg/injection, schedule: Q01DX007 (ip), vehicle: carboxymethylcellulose (CMC)): 92 % of control | T/C (dose: 148.0 mg/kg/injection, schedule: Q01DX007 (ip), vehicle: other): 96 % of control | T/C (dose: 148.0 mg/kg/injection, schedule: Q01DX007 (ip), vehicle: saline): 56 % of control | T/C (dose: 166.5 mg/kg/injection, schedule: Q#A X014 (ip), vehicle: saline): 21 % of control | T/C [2]: 42 % of control | T/C (dose: 222.0 mg/kg/injection, schedule: Q01DX007 (ip), vehicle: saline): 64 % of control | T/C (dose: 250.0 mg/kg/injection, schedule: Q#A X014 (ip), vehicle: saline): 21 % of control | T/C [3]: 40 % of control | T/C (dose: 333.0 mg/kg/injection, schedule: Q01DX007 (ip), vehicle: saline): 67 % of control | T/C (dose: 500.0 mg/kg/injection, schedule: Q01DX007 (ip), vehicle: saline): 54 % of control

CCOC(N)=O
T/C [1]: 103 % of control | T/C (dose: 85.38 mg/kg/injection, schedule: Q01DX007 (ip), vehicle: carboxymethylcellulose (CMC)): 56 % of control | T/C (dose: 112.5 mg/kg/injection, schedule: Q01DX007 (ip), vehicle: carboxymethylcellulose (CMC)): 53 % of control | T/C (dose: 125.0 mg/kg/injection, schedule: Q#A X014 (ip), vehicle: carboxymethylcellulose (CMC)): 85 % of control | T/C (dose: 170.75 mg/kg/injection, schedule: Q01DX007 (ip), vehicle: carboxymethylcellulose (CMC)): 64 % of control | T/C (dose: 225.0 mg/kg/injection, schedule: Q01DX007 (ip), vehicle: carboxymethylcellulose (CMC)): 42 % of control | T/C (dose: 225.0 mg/kg/injection, schedule: Q#A X014 (ip), vehicle: carboxymethylcellulose (CMC)): 113 % of control | T/C (dose: 250.0 mg/kg/injection, schedule: Q#A X014 (ip), vehicle: carboxymethylcellulose (CMC)): 77 % of control | T/C (dose: 273.2 mg/kg/injection, schedule: Q01DX007 (ip), vehicle: carboxymethylcellulose (CMC)): 55 % of control | T/C (dose: 300.0 mg/kg/injection, schedule: Q#A X014 (ip), vehicle: carboxymethylcellulose (CMC)): 73 % of control | T/C (dose: 316.0 mg/kg/injection, schedule: Q01DX007 (ip), vehicle: carboxymethylcellulose (CMC)): 67 % of control | T/C (dose: 341.5 mg/kg/injection, schedule: Q01DX007 (ip), vehicle: carboxymethylcellulose (CMC)): 37 % of control and 46 % of control | T/C (dose: 395.0 mg/kg/injection, schedule: Q01DX007 (ip), vehicle: carboxymethylcellulose (CMC)): 54 % of control | T/C (dose: 450.0 mg/kg/injection, schedule: Q01DX007 (ip), vehicle: carboxymethylcellulose (CMC)): 53 % of control | T/C (dose: 455.33 mg/kg/injection, schedule: Q01DX007 (ip), vehicle: carboxymethylcellulose (CMC)): 62 % of control | T/C (dose: 500.0 mg/kg/injection, schedule: Q#A X014 (ip), vehicle: carboxymethylcellulose (CMC)): 24 % of control | T/C (dose: 526.6 mg/kg/injection, schedule: Q01DX007 (ip), vehicle: carboxymethylcellulose (CMC)): 40 % of control | T/C (dose: 683.0 mg/kg/injection, schedule: Q01DX007 (ip), vehicle: carboxymethylcellulose (CMC)): 21 % of control and 44 % of control | T/C (dose: 900.0 mg/kg/injection, schedule: Q01DX007 (ip), vehicle: carboxymethylcellulose (CMC)): 23 % of control

OCC(F)(F)C(F)(F)C(F)(F)F
T/C [2]: 56 % of control | T/C (dose: 250.0 mg/kg/injection, schedule: Q01DX007 (ip), vehicle: saline): 74 % of control | T/C [3]: 82 % of control | T/C (dose: 500.0 mg/kg/injection, schedule: Q01DX007 (ip), vehicle: other): 56 % of control | T/C (dose: 750.0 mg/kg/injection, schedule: Q01DX007 (ip), vehicle: other): 90 % of control

SCc1ccccn1
T/C (dose: 62.0 mg/kg/injection, schedule: Q01DX007 (ip), vehicle: other): 117 % of control | T/C (dose: 125.0 mg/kg/injection, schedule: Q01DX007 (ip), vehicle: other): 103 % of control

CN(CCO)/N=N/c1nc[nH]c1C(N)=O
T/C (dose: 125.0 mg/kg/injection, schedule: Q01DX007 (ip), vehicle: carboxymethylcellulose (CMC)): 73 % of control | T/C (dose: 250.0 mg/kg/injection, schedule: Q01DX007 (ip), vehicle: carboxymethylcellulose (CMC)): 78 % of control

CCCCCCCCCCOP(N)(=O)OCCCCCCCCCC
T/C (dose: 27.75 mg/kg/injection, schedule: Q#A X014 (ip), vehicle: carboxymethylcellulose (CMC)): 56 % of control and 64 % of control | T/C (dose: 41.5 mg/kg/injection, schedule: Q#A X014 (ip), vehicle: carboxymethylcellulose (CMC)): 60 % of control and 63 % of control

NC(=O)c1n[se]nc1N
T/C (dose: 1.0 mg/kg/injection, schedule: Q01DX007 (ip), vehicle: carboxymethylcellulose (CMC)): 65 % of control | T/C (dose: 2.0 mg/kg/injection, schedule: Q01DX007 (ip), vehicle: carboxymethylcellulose (CMC)): 99 % of control

CC(=O)N[C@H]1CC[C@H]2[C@@H]3CCC4=CC(=O)CC[C@]4(C)[C@H]3CC[C@]12C
T/C (dose: 5.0 mg/kg/injection, schedule: Q#A X014 (sc), vehicle: steriod suspending solution): 105 % of control | T/C (dose: 50.0 mg/kg/injection, schedule: Q#A X014 (sc), vehicle: steriod suspending solution): 94 % of control | T/C (dose: 100.0 mg/kg/injection, schedule: Q#A X014 (sc), vehicle: steriod suspending solution): 78 % of control
